According to the supplement of paper PMC11208160:
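Also: IS621 recombinase and bridge RNA in Escherichia coli cells.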

Test: recombinant barcode read abundance after kanamycin selection (control-corrected) (log10(CPM+1)); higher = more efficient recombination; sequences stand for … in AGTGCAGAGAAAATCGGCCAGTTTTCTCTGCCTGCAGTCCGCATGCCGT…AGATTTATGCAGCGGACTGCCTTTCTCCCAAAGTGATAAACCGGACAGTATCATGGACCGGTTTTCCCGGTAATCCGTATTTGCAAGGTTGGTTTCACT; site = the 11-nt target
Summary of the method: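 Recombination efficiency in this pooled E. coli screen uses counts per million of barcodes at recombinant junctions, averaged and corrected against the control. The reported form is log10(CPM+1). Two replicates were plated on chloramphenicol/ampicillin LB agar as control and two on chloramphenicol/ampicillin/kanamycin with 0.1 mM IPTG.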
With “GGTCATGCTTGGGTTCTAACCTGTTGCCT (site GGTCATCCTAG)” the “recombinant barcode read abundance (log10)” value was 0.131.
In the case of “GGTCATGCTTGGGTTCTAACCTGTTGCCT (site GGTCATGCTAG)”, the “recombinant barcode read abundance (log10)” value is reported as 1.11.
In the case of “GGTCATGCTTGGGTTCTAACCTGTTGCCT (site GGTCATTCTAG)”, the “recombinant barcode read abundance (log10)” value is reported as 0.0304.
For “GGTCCACCTTGGGTTCTAACCTGTTGCCT (site AGTCCACCTAG)”, the “recombinant barcode read abundance (log10)” value was 0.386.
In the case of “GGTCCACCTTGGGTTCTAACCTGTTGCCT (site CGTCCACCTAG)”, the “recombinant barcode read abundance (log10)” value is reported as 0.181.
In the case of “GGTCCACCTTGGGTTCTAACCTGTTGCCT (site GGTCCACCTAG)”, the “recombinant barcode read abundance (log10)” value is reported as 1.07.
In the case of “GGTCCACCTTGGGTTCTAACCTGTTGCCT (site TGTCCACCTAG)”, the “recombinant barcode read abundance (log10)” value is reported as 0.108.
With “GGTCCCACTTGGGTTCTAACCTGTTGCCT (site GGGCTCACTAG)” the “recombinant barcode read abundance (log10)” value was 0.0761.
For “GGTCCCACTTGGGTTCTAACCTGTTGCCT (site GGTCCCACTAG)”, the “recombinant barcode read abundance (log10)” value was 0.943.
In the case of “GGTCCGTCTTGGGTTCTAACCTGTTGCAT (site AGTCGGTCTAT)”, the “recombinant barcode read abundance (log10)” value is reported as 0.127.
In the case of “GGTCCGTCTTGGGTTCTAACCTGTTGCAT (site GGTCCGTCTAT)”, the “recombinant barcode read abundance (log10)” value is reported as 1.16.
In the case of “GGTCCTACTTGGGTTCTAACCTGTTGCCT (site GATCCTACTAG)”, the “recombinant barcode read abundance (log10)” value is reported as 0.241.
With “GGTCCTACTTGGGTTCTAACCTGTTGCCT (site GCTCCTACTAG)” the “recombinant barcode read abundance (log10)” value was 0.0585.
With “GGTCCTACTTGGGTTCTAACCTGTTGCCT (site GGTCCTACTAG)” the “recombinant barcode read abundance (log10)” value was 0.355.
For “GGTCCTACTTGGGTTCTAACCTGTTGCCT (site GTTCCTACTAG)”, the “recombinant barcode read abundance (log10)” value was 0.187.
With “GGTCGAACTTGGGTTCTAACCTGTTGCCT (site GGTCAAACTAG)” the “recombinant barcode read abundance (log10)” value was 0.107.
With “GGTCGAACTTGGGTTCTAACCTGTTGCCT (site GGTCCAACTAG)” the “recombinant barcode read abundance (log10)” value was 0.127.
With “GGTCGAACTTGGGTTCTAACCTGTTGCCT (site GGTCGAACTAG)” the “recombinant barcode read abundance (log10)” value was 0.624.
For “GGTCGAACTTGGGTTCTAACCTGTTGCCT (site GGTCTAACTAG)”, the “recombinant barcode read abundance (log10)” value was 0.0343.
In the case of “GGTCGCTCTTGGGTTCTAACCTGTTGCCT (site GGACGCTCTAG)”, the “recombinant barcode read abundance (log10)” value is reported as 0.0961.
For “GGTCGCTCTTGGGTTCTAACCTGTTGCCT (site GGTCGCTCTAG)”, the “recombinant barcode read abundance (log10)” value was 1.35.
For “GGTGACTCTTGGGTTCTAACCTGTTGCCT (site GGTGACTCTAG)”, the “recombinant barcode read abundance (log10)” value was 1.15.
For “GGTGACTCTTGGGTTCTAACCTGTTGCCT (site GGTGGATCTAG)”, the “recombinant barcode read abundance (log10)” value was 0.114.
With “GGTGCTCCTTGGGTTCTAACCTGTTGCAA (site GGTGCTCCTAT)” the “recombinant barcode read abundance (log10)” value was 0.0718.
For “GGTGCTCCTTGGGTTCTAACCTGTTGCAA (site GGTGCTCCTCT)”, the “recombinant barcode read abundance (log10)” value was 0.0634.
With “GGTGCTCCTTGGGTTCTAACCTGTTGCAA (site GGTGCTCCTGT)” the “recombinant barcode read abundance (log10)” value was 0.0326.
In the case of “GGTGCTCCTTGGGTTCTAACCTGTTGCAA (site GGTGCTCCTTT)”, the “recombinant barcode read abundance (log10)” value is reported as 0.3.
For “GGTGCTCCTTGGGTTCTAACCTGTTGCAG (site GGTGCTCCTAT)”, the “recombinant barcode read abundance (log10)” value was 0.0917.
In the case of “GGTGCTCCTTGGGTTCTAACCTGTTGCAG (site GGTGCTCCTCT)”, the “recombinant barcode read abundance (log10)” value is reported as 0.88.
With “GGTGCTCCTTGGGTTCTAACCTGTTGCAG (site GGTGCTCCTGT)” the “recombinant barcode read abundance (log10)” value was 0.
In the case of “GGTGCTCCTTGGGTTCTAACCTGTTGCAG (site GGTGCTCCTTT)”, the “recombinant barcode read abundance (log10)” value is reported as 0.0255.
In the case of “GGTGCTCCTTGGGTTCTAACCTGTTGCAT (site GGTGCTCCTAT)”, the “recombinant barcode read abundance (log10)” value is reported as 0.914.
In the case of “GGTGCTCCTTGGGTTCTAACCTGTTGCAT (site GGTGCTCCTCT)”, the “recombinant barcode read abundance (log10)” value is reported as 0.017.
In the case of “GGTGCTCCTTGGGTTCTAACCTGTTGCAT (site GGTGCTCCTGT)”, the “recombinant barcode read abundance (log10)” value is reported as 0.0976.
With “GGTGCTCCTTGGGTTCTAACCTGTTGCAT (site GGTGCTCCTTT)” the “recombinant barcode read abundance (log10)” value was 0.0242.
For “GGTGGGACTTGGGTTCTAACCTGTTGCAC (site AAATCTGCTAG)”, the “recombinant barcode read abundance (log10)” value was 0.259.
For “GGTGGGACTTGGGTTCTAACCTGTTGCAC (site GGTGGGACTGT)”, the “recombinant barcode read abundance (log10)” value was 1.95.
In the case of “GGTTCATCTTGGGTTCTAACCTGTTGCCA (site GGCTCCTCTTG)”, the “recombinant barcode read abundance (log10)” value is reported as 0.0691.
In the case of “GGTTCATCTTGGGTTCTAACCTGTTGCCA (site GGTTCATCTTG)”, the “recombinant barcode read abundance (log10)” value is reported as 0.0738.
For “GGTTCCTCTTGGGTTCTAACCTGTTGCGG (site GGTTCCTCTCC)”, the “recombinant barcode read abundance (log10)” value was 0.933.
In the case of “GGTTCCTCTTGGGTTCTAACCTGTTGCGG (site TACCTAACTAA)”, the “recombinant barcode read abundance (log10)” value is reported as 0.118.
For “GGTTGACCTTGGGTTCTAACCTGTTGCAT (site GGTTCACCTCT)”, the “recombinant barcode read abundance (log10)” value was 0.226.
For “GGTTGACCTTGGGTTCTAACCTGTTGCAT (site GGTTGACCTAT)”, the “recombinant barcode read abundance (log10)” value was 0.913.
With “GTAACCTCTTGGGTTCTAACCTGTTGCCC (site GTAACCTCTAG)” the “recombinant barcode read abundance (log10)” value was 0.928.
For “GTAACCTCTTGGGTTCTAACCTGTTGCCC (site GTAACCTCTCG)”, the “recombinant barcode read abundance (log10)” value was 0.179.
With “GTAACCTCTTGGGTTCTAACCTGTTGCCC (site GTAACCTCTGG)” the “recombinant barcode read abundance (log10)” value was 1.97.
In the case of “GTAACCTCTTGGGTTCTAACCTGTTGCCC (site GTAACCTCTTG)”, the “recombinant barcode read abundance (log10)” value is reported as 0.128.
For “GTAACTACTTGGGTTCTAACCTGTTGCAC (site CTAATTACTGT)”, the “recombinant barcode read abundance (log10)” value was 0.0302.
In the case of “GTAACTACTTGGGTTCTAACCTGTTGCAC (site GTAACTACTGT)”, the “recombinant barcode read abundance (log10)” value is reported as 0.926.
In the case of “GTAACTACTTGGGTTCTAACCTGTTGCGG (site GTAACTACTCC)”, the “recombinant barcode read abundance (log10)” value is reported as 2.1.
For “GTAACTACTTGGGTTCTAACCTGTTGCGG (site GTCACTACTAC)”, the “recombinant barcode read abundance (log10)” value was 0.0797.
With “GTAACTCCTTGGGTTCTAACCTGTTGCCT (site GTAACTCCTAG)” the “recombinant barcode read abundance (log10)” value was 0.487.
For “GTAACTCCTTGGGTTCTAACCTGTTGCCT (site TGAACTCCTAG)”, the “recombinant barcode read abundance (log10)” value was 0.041.
In the case of “GTAACTGCTTGGGTTCTAACCTGTTGCCT (site GTAAATGCTAG)”, the “recombinant barcode read abundance (log10)” value is reported as 0.373.
In the case of “GTAACTGCTTGGGTTCTAACCTGTTGCCT (site GTAACTGCTAG)”, the “recombinant barcode read abundance (log10)” value is reported as 0.941.
For “GTAACTGCTTGGGTTCTAACCTGTTGCCT (site GTAAGTGCTAG)”, the “recombinant barcode read abundance (log10)” value was 0.084.
For “GTAACTGCTTGGGTTCTAACCTGTTGCCT (site GTAATTGCTAG)”, the “recombinant barcode read abundance (log10)” value was 0.0184.
With “GTAAGGACTTGGGTTCTAACCTGTTGCTT (site GTAAGAACTAA)” the “recombinant barcode read abundance (log10)” value was 0.738.
With “GTAAGGACTTGGGTTCTAACCTGTTGCTT (site GTAAGCACTAA)” the “recombinant barcode read abundance (log10)” value was 0.156.
For “GTAAGGACTTGGGTTCTAACCTGTTGCTT (site GTAAGGACTAA)”, the “recombinant barcode read abundance (log10)” value was 1.16.
With “GTAAGGACTTGGGTTCTAACCTGTTGCTT (site GTAAGTACTAA)” the “recombinant barcode read abundance (log10)” value was 0.0109.
For “GTAAGTACTTGGGTTCTAACCTGTTGCCA (site ATAAGTCCTTG)”, the “recombinant barcode read abundance (log10)” value was 0.063.
In the case of “GTAAGTACTTGGGTTCTAACCTGTTGCCA (site GTAAGTACTTG)”, the “recombinant barcode read abundance (log10)” value is reported as 1.54.
With “GTAATTACTTGGGTTCTAACCTGTTGCCT (site GTAATTACTAG)” the “recombinant barcode read abundance (log10)” value was 0.441.
For “GTAATTACTTGGGTTCTAACCTGTTGCCT (site TACGCACCTTC)”, the “recombinant barcode read abundance (log10)” value was 0.0355.
In the case of “GTACAGCCTTGGGTTCTAACCTGTTGCCT (site GTACAGCCTAG)”, the “recombinant barcode read abundance (log10)” value is reported as 1.35.
In the case of “GTACAGCCTTGGGTTCTAACCTGTTGCCT (site GTACCGCCTAG)”, the “recombinant barcode read abundance (log10)” value is reported as 0.0712.
In the case of “GTACAGCCTTGGGTTCTAACCTGTTGCCT (site GTACGGCCTAG)”, the “recombinant barcode read abundance (log10)” value is reported as 0.0431.
With “GTACAGCCTTGGGTTCTAACCTGTTGCCT (site GTACTGCCTAG)” the “recombinant barcode read abundance (log10)” value was 0.155.
For “GTACATCCTTGGGTTCTAACCTGTTGCGT (site AAGGTCACTCA)”, the “recombinant barcode read abundance (log10)” value was 0.0803.
With “GTACATCCTTGGGTTCTAACCTGTTGCGT (site GTACATCCTAC)” the “recombinant barcode read abundance (log10)” value was 2.13.
With “GTACGCGCTTGGGTTCTAACCTGTTGCGT (site CTACGCGCTAA)” the “recombinant barcode read abundance (log10)” value was 0.392.
For “GTACGCGCTTGGGTTCTAACCTGTTGCGT (site GTACGCGCTAC)”, the “recombinant barcode read abundance (log10)” value was 1.14.
In the case of “GTACGCTCTTGGGTTCTAACCTGTTGCTT (site GGAAGCTCTAA)”, the “recombinant barcode read abundance (log10)” value is reported as 0.
For “GTACGCTCTTGGGTTCTAACCTGTTGCTT (site GTACGCTCTAA)”, the “recombinant barcode read abundance (log10)” value was 0.218.
With “GTACGGTCTTGGGTTCTAACCTGTTGCAT (site GTACGATCTTT)” the “recombinant barcode read abundance (log10)” value was 0.107.
With “GTACGGTCTTGGGTTCTAACCTGTTGCAT (site GTACGGTCTAT)” the “recombinant barcode read abundance (log10)” value was 2.
